From PMC4779111, “A Human Renal Proximal Tubule Cell Line with Stable Organic Anion Transporter 1 and 3 Expression Predictive for Antiviral-Induced Toxicity” (The AAPS Journal, 2016)
Where a name gives a salt, the structure may show the parent alone. Read-outs that look alike come from different tables or passages of the source.

What was measured:
OAT3 [1] = target: T1, OAT3 (Homo sapiens, UniProt Q8TCC7); test: Inhibition of OAT-mediated fluorescein uptake in ciPTEC-OAT3
T1 sequence (Q8TCC7 1-542): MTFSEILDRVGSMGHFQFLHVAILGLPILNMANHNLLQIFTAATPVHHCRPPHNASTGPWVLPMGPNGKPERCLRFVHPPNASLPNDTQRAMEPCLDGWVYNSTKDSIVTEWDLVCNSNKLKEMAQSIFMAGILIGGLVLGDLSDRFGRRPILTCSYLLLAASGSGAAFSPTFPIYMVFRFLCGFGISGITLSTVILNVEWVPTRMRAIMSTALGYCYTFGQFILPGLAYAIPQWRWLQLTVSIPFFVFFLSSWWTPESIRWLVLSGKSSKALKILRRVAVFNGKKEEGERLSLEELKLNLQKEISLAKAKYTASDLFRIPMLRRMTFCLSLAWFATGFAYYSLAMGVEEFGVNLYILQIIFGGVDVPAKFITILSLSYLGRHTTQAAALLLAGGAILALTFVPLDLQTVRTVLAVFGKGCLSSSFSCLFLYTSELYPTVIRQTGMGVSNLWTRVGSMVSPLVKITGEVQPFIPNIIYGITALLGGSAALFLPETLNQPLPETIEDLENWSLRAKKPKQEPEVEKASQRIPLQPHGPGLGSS
Experimental: (§1) All chemicals were obtained from Sigma, unless stated otherwise. Uptake was stopped by washing three times with ice-cold HBSS (4°C).
(§2) Non-linear regression with variable slope constraining the top to 100% was used to fit the data after background subtraction with GraphPad Prism. Statistics was performed by two-way ANOVA (two-tailed, α = 0.05) using GraphPad Prism as well. All data is presented as mean ± SEM of at least three separate experiments (n = 3) performed in triplicate, unless stated otherwise.

OAT3 [2] = target: T1, OAT3; conditions: substrate estrone sulfate, Xenopus-OAT3; read-out: IC50 (literature); cited from earlier work
[3] = MTT viability assay, ciPTEC-OAT1; assay type: cell-based, human; conditions: human, ciPTEC-OAT1 cells (monolayers, 96-well); for IC50 at 24 h: read-out: IC50 on cell viability (MTT), 24 h; for IC50 at 72 h: read-out: IC50 on cell viability (MTT), 72 h
ciPTEC-OAT1 = test: MTT viability assay, ciPTEC-OAT1; assay type: cell-based, human; conditions: for Cell viability (MTT): ciPTEC-OAT1, 1 mM, 48 h, serum-free medium; for Cell viability (MTT), concentration and time dependence: ciPTEC-OAT1, 24, 48 and 72 h
ciPTEC-OAT3 = test: MTT viability assay, ciPTEC-OAT3; assay type: cell-based, human; conditions: for Cell viability (MTT), concentration and time dependence: ciPTEC-OAT3, 24, 48 and 72 h
Experimental: Cell toxicity was analyzed further in presence of MRP and BCRP efflux inhibitors MK571 (5 μM) and KO143 (10 μM).

OAT1 [4] = target: T2, OAT1 (Homo sapiens, UniProt Q4U2R8); design: method as in PMID 23856525; conditions: substrate PAH, HeLa-OAT1; read-out: IC50 (literature); cited from earlier work
T2 sequence (Q4U2R8 1-563): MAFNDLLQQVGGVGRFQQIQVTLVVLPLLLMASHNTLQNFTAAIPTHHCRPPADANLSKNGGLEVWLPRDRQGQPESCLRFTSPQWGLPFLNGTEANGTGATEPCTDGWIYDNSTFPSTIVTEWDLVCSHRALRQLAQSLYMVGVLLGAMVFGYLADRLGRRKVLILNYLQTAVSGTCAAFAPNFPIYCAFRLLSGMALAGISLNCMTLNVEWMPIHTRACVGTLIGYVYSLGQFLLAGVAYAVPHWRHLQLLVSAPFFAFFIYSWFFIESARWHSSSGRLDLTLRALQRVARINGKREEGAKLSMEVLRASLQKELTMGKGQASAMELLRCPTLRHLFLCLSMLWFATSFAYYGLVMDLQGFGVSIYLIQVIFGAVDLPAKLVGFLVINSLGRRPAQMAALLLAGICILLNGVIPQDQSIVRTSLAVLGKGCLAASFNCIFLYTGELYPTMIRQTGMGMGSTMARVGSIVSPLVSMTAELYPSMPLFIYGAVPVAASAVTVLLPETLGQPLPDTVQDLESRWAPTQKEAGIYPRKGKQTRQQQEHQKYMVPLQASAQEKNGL

[5] = plasma, maximal free plasma concentration, 47 (zidovudine), cited from earlier work
hOAT1-CHO and HEK-OAT1 = conditions: cited from earlier work
[6] = design: method as in PMID 19445515; conditions: cited from earlier work
OAT1 [7] = target: T2, OAT1; test: Inhibition of OAT-mediated fluorescein uptake in ciPTEC-OAT1; assay type: cell-based; design: host or cells: ciPTEC (human conditionally immortalized proximal tubule epithelial cells), lentiviral transduction; conditions: for Effect on OAT-mediated fluorescein uptake (in words): ciPTEC-OAT1, fluorescein 1 μM, 10 min; for DDI index Cmax/IC50: ciPTEC-OAT1, with the second-listed (higher) Cmax
Experimental: as §1, §2

OAT1 [8] = target: T2, OAT1; test: OAT1-mediated fluorescein uptake kinetics in ciPTEC-OAT1; assay type: cell-based; design: host or cells: ciPTEC (human conditionally immortalized proximal tubule epithelial cells), lentiviral transduction
Experimental: as §1

OAT3 [9] = target: T1, OAT3; test: OAT3-mediated fluorescein uptake kinetics in ciPTEC-OAT3; assay type: cell-based; design: host or cells: ciPTEC (human conditionally immortalized proximal tubule epithelial cells), lentiviral transduction; conditions: n = 4
Experimental: as §1

[10] = substrate: O=C1OC2(c3ccc(O)cc3Oc3cc(O)ccc32)c2ccccc21; test: cells, lysate or membranes; conditions: other: fluorescein uptake, 10 min, Michaelis-Menten with linear diffusion, mean ± SEM, n = 4; 37.0 °C
[11] = first-listed (lower) value per drug, ref 40 (adefovir), 42 (cidofovir), 45 (tenofovir)
[12] = second-listed (higher) value per drug, ref 41 (adefovir), 43 (cidofovir), 46 (tenofovir)
[13] = 120 h, OAT1 overexpression cells, read-out: IC50 on cell viability (literature), 120 h
[14] = read-out: IC50 on cell viability (literature), 48 h, OAT1 overexpression cells

Row | Molecule | IC50 at 48 h [3] [µM] | IC50 at 24 h [3] [µM] | IC50 at 72 h [3] [µM] | Cell viability (MTT) (ciPTEC-OAT1) | Cell viability (MTT), concentration and time dependence (ciPTEC-OAT1) | Cell viability (MTT), concentration and time dependence (ciPTEC-OAT3) | Cmax [5, 11] [µM] | Cmax [5, 12] [µM] | IC50 (hOAT1-CHO and HEK-OAT1; [13]) [µM] | IC50 (hOAT1-CHO and HEK-OAT1; [14]) [µM] | Renal excretion of unchanged drug (in words) [6] | IC50 (OAT1 [7]) [µM] | Effect on OAT-mediated fluorescein uptake (in words) (OAT1 [7]) | other results
1 | C[C@]12CC[C@@H]3c4ccc(OS(=O)(=O)O)cc4CC[C@H]3[C@@H]1CCC2=O [Estrone sulfate, estrone sulfate] | – | – | – | – | – | – | – | – | – | – | – | – | – | IC50 (OAT3 [1]; read-out: IC50 of fluorescein uptake, ciPTEC-OAT3, fluorescein 1 μM, 10 min, HBSS 37°C, mean ± SEM, n = 4, cimetidine: apparent IC50 due to partial inhibition): 2.1 ± 0.3 µM; IC50 (OAT3 [2]): 3 µM
2 | Nc1ncnc2c1ncn2CCOCP(=O)(O)O [Adefovir, adefovir] | 303 ± 38 | 462 ± 52 | 230 ± 37 | significantly affected cell viability | concentration- and time-dependent decrease in viability | less pronounced | 1.6 | 38.8 | 1.4 ± 0.7 | 0.22 ± 0.08 | largely excreted unchanged by the kidneys | 23 ± 4 | Concentration-dependent inhibition | IC50 (OAT1 [4]): 8.1 µM; DDI index Cmax/IC50 (OAT1 [7]): 4.2
3 | O=C1OC2(c3ccc(O)cc3Oc3cc(O)ccc32)c2ccccc21 [Fluorescein, fluorescein] | – | – | – | – | – | – | – | – | – | – | – | – | – | Vmax (OAT1 [8]; fluorescein uptake, 10 min, n = 4): 695 ± 84 RFU; Fluorescein affinity for OAT1 relative to OAT3 (OAT1 [8]; from Km values of Table I): approximately fivefold higher; Kd (OAT1 [8]; passive diffusion component kd of fluorescein uptake, n = 4): 2.4 ± 1.2 RFU*L/μmol; Vmax (OAT3 [9]; fluorescein uptake, 10 min): 384 ± 103 RFU; Kd (OAT3 [9]; passive diffusion component kd of fluorescein uptake): 4.3 ± 0.9 RFU*L/μmol
4 | Nc1ccc(C(=O)NCC(=O)O)cc1 [Para-aminohippuric acid, para-aminohippuric acid] | – | – | – | – | – | – | – | – | – | – | – | – | – | IC50 (OAT3 [1]): 152 ± 3 µM; Fluorescein uptake by flow cytometry in presence of inhibitor (OAT3 [1]; transduced ciPTEC-OAT3, fluorescein 1 μM, 10 min, inhibitor 100 μM): sensitive to para-aminohippuric acid-induce inhibition
5 | C[C@H](Cn1cnc2c(N)ncnc21)OCP(=O)(O)O [Tenofovir, tenofovir] | 189 ± 48 | 114 ± 25 | 223 ± 67 | significantly affected cell viability | concentration- and time-dependent decrease in viability | less pronounced | 0.52 | 0.72 | 21 ± 7 | 10 ± 2 | largely excreted unchanged by the kidneys | 42 ± 8 | Concentration-dependent inhibition | Cell viability (MTT) (ciPTEC-OAT3; ciPTEC-OAT3, 1 mM, 48 h, serum-free medium): slightly decreased; IC50 (OAT1 [4]): 29.3 µM; DDI index Cmax/IC50 (OAT1 [7]): 0.019
6 | Nc1ccn(C[C@@H](CO)OCP(=O)(O)O)c(=O)n1 [Cidofovir, cidofovir] | 130 ± 58 | 613 ± 384 | 69 ± 2 | significantly affected cell viability | concentration- and time-dependent decrease in viability | less pronounced | 15.8 | 26.3 | 3 ± 1 | 0.5 ± 0.2 | largely excreted unchanged by the kidneys | 71 ± 34 | Concentration-dependent inhibition | –
7 | OAT1 (Homo sapiens) (protein) MAFNDLLQQVGGVGRFQQIQVTLVVLPLLLMASHNTLQNFTAAIPTHHCRPPADANLSKNGGLEVWLPRDRQGQPESCLRFTSPQWGLPFLNGTEANGTGATEPCTDGWIYDNSTFPSTIVTEWDLVCSHRALRQLAQSLYMVGVLLGAMVFGYLADRLGRRKVLILNYLQTAVSGTCAAFAPNFPIYCAFRLLSGMALAGISLNCMTLNVEWMPIHTRACVGTLIGYVYSLGQFLLAGVAYAVPHWRHLQLLVSAPFFAFFIYSWFFIESARWHSSSGRLDLTLRALQRVARINGKREEGAKLSMEVLRASLQKELTMGKGQASAMELLRCPTLRHLFLCLSMLWFATSFAYYGLVMDLQGFGVSIYLIQVIFGAVDLPAKLVGFLVINSLGRRPAQMAALLLAGICILLNGVIPQDQSIVRTSLAVLGKGCLAASFNCIFLYTGELYPTMIRQTGMGMGSTMARVGSIVSPLVSMTAELYPSMPLFIYGAVPVAASAVTVLLPETLGQPLPDTVQDLESRWAPTQKEAGIYPRKGKQTRQQQEHQKYMVPLQASAQEKNGL | – | – | – | – | – | – | – | – | – | – | – | – | – | Km [10]: 0.8 ± 0.1 µM
8 | OAT3 (Homo sapiens) (protein) MTFSEILDRVGSMGHFQFLHVAILGLPILNMANHNLLQIFTAATPVHHCRPPHNASTGPWVLPMGPNGKPERCLRFVHPPNASLPNDTQRAMEPCLDGWVYNSTKDSIVTEWDLVCNSNKLKEMAQSIFMAGILIGGLVLGDLSDRFGRRPILTCSYLLLAASGSGAAFSPTFPIYMVFRFLCGFGISGITLSTVILNVEWVPTRMRAIMSTALGYCYTFGQFILPGLAYAIPQWRWLQLTVSIPFFVFFLSSWWTPESIRWLVLSGKSSKALKILRRVAVFNGKKEEGERLSLEELKLNLQKEISLAKAKYTASDLFRIPMLRRMTFCLSLAWFATGFAYYSLAMGVEEFGVNLYILQIIFGGVDVPAKFITILSLSYLGRHTTQAAALLLAGGAILALTFVPLDLQTVRTVLAVFGKGCLSSSFSCLFLYTSELYPTVIRQTGMGVSNLWTRVGSMVSPLVKITGEVQPFIPNIIYGITALLGGSAALFLPETLNQPLPETIEDLENWSLRAKKPKQEPEVEKASQRIPLQPHGPGLGSS | – | – | – | – | – | – | – | – | – | – | – | – | – | Km [10]: 3.7 ± 0.5 µM
